These results are taken from paper PMC7316490, “Dihydrofolate Reductase Is a Valid Target for Antifungal Development in the Human Pathogen Candida albicans” (mSphere, 2020).

The term MIC50 denotes the lowest concentration that inhibits either 50% of growth or 50% of the strains tested, depending on the study.

In test [1] the test system is C. albicans cdr1Δ/Δ, tac1Δ/Δ and mdr1Δ/Δ mutants. The test can be described thus: Antifungal susceptibility testing of efflux pump mutants. Format: cell-based, Candida albicans. The following applies: for MIC50: Candida albicans. The method, then:
C. albicans cdr1Δ/Δ (A), tac1Δ/Δ (B), or mdr1Δ/Δ (C) strains, or that overexpress CDR1 (A), TAC1 (B), or MDR1 (C) from the PTEF1 promoter, were subcultured to approximately 1 × 10^4 cells/ml into YNB medium at pH 5 or pH 7 supplemented with a range of MTX concentrations. After 48 h at 30°C, growth was quantified as the OD600 value and expressed as a percentage of the value for the untreated wells. The values presented here are the average of two replicates and are representative of two independent experiments. WT, wild type.
(§1) Stock solutions of MTX were prepared at 10 mM in dimethyl sulfoxide (DMSO) and diluted as needed in the same solvent. Each C. albicans strain was grown overnight in YPD medium at 30°C and diluted to approximately 1 × 10^4 cells/ml in YNB medium or RPMI 1640 medium, and 100 μl of each cell suspension was transferred to the wells of a round-bottom 96-well plate. An additional 100 μl of YNB or RPMI 1640 medium containing 2× the final desired concentration of MTX was then added to each well. The final concentration of DMSO was 0.5% for all treatments. Plates were then incubated at 30°C before growth was quantified after 24 and 48 h by measuring the OD600 using a Cytation 5 plate reader (Bio-Tek Instruments, Inc.). MIC50 values were identified visually using the CLSI antifungal susceptibility assay and then confirmed by quantifying growth by the OD600 value. The growth of each strain at each drug concentration was then expressed relative to that of the DMSO-alone control. The susceptibility to MTX at the highest concentration at each pH was compared to that of the other pH values using a two-tailed Student's t test.

The test system of test [2] is wild-type C. albicans strain (SC5314). Put plainly: Antifungal susceptibility testing (dose-response growth, OD600). Format: cell-based, Candida albicans. As to conditions: for MIC50: Candida albicans. The method, then: A wild-type C. albicans strain (SC5314) was seeded at 1 × 10^4 cells/ml into YNB medium without folate or PABA with the indicated supplements and increasing concentrations of MTX. After 48 h of incubation at 30°C, growth was quantified as the OD600 value and expressed as a percentage of the value for the DMSO-treated control. The values presented here are the average of two replicates and are representative of two independent experiments.
Approximately 1 × 10^4 cells/ml of a wild-type C. albicans strain was seeded into a 96-well plate with increasing concentrations of MTX in YNB pH 5, YNB pH 7, and RPMI pH 7 media. After 48 h, the OD600 was measured and expressed as a percentage of the value for the DMSO-treated control. The results presented here are the averages of two replicates and are representative of two independent experiments.
as §1, with “Each C. albicans strain was grown overnight in YPD medium at 30°C and diluted to approximately 1 × 10^4 cells/ml in YNB medium or RPMI 1640 medium, and 100 μl of each cell suspension was transferred to the wells of a round-bottom 96-well plate. An additional 100 μl of YNB or RPMI 1640 medium containing 2× the final desired concentration of MTX was then added to each well.” left out

Another test deals with Candida glabrata. The test can be described thus: Antifungal susceptibility testing, other species. The following applies: YNB medium at pH 5 and pH 7. Type of test: cell-based. The method, then:
(§2) Strains of C. albicans (A), C. glabrata (B), C. tropicalis (C), and C. parapsilosis (D) were seeded into YNB medium buffered at pH 5 or pH 7 at approximately 1 × 10^4 cells/ml in the presence of a range of MTX concentrations. After 48 h at 30°C, growth was quantified as the OD600 and expressed as a percentage of the value for the untreated controls. The values presented here are the average of two replicates and are representative of two experiments. The susceptibility to MTX at the highest concentration at each pH was compared to that of the other pH values using a two-tailed Student's t test (*, P < 0.01; **, P < 0.0001).
as §1

Another test has as its system Candida parapsilosis. The test can be described thus: Antifungal susceptibility testing, other species. Format: cell-based. As to conditions: YNB medium at pH 5 and pH 7. The method, then:
as §2, §1

The next test has as its system Candida tropicalis. The test can be described thus: Antifungal susceptibility testing, other species. Format: cell-based. As to conditions: YNB medium at pH 5 and pH 7. The method, then: as §2, §1

Molecules are shown by their SMILES. In brackets after ≈: the same amount, converted by molar mass.

Consider `CN(Cc1cnc2nc(N)nc(N)c2n1)c1ccc(C(=O)N[C@@H](CCC(=O)O)C(=O)O)cc1` [Methotrexate, methotrexate], for which the MIC50 in test [1] (pH 5) was 0.39 µM (≈ 0.177 µg/mL); in test [1] (pH 7), greater than 6.25 µM; in test [2] (SC5314, YNB medium with additional supplements of folic acid (up to 25 μM)), 0.078 µM (≈ 0.0354 µg/mL); in test [2] (SC5314, YNB with addition of 250 μM folinic acid) it was roughly 5 µM (≈ 2.27 µg/mL); in test [2] (SC5314, pH 5, YNB pH 5 medium) it was roughly 0.78 µM (≈ 0.354 µg/mL); in test [2] (SC5314, pH 7, RPMI 1640 pH 7 medium), greater than 50 µM. Also, the MIC50 is greater than 50 µM in test [2] (SC5314, pH 7, YNB pH 7 medium) and roughly 0.78 µM (≈ 0.354 µg/mL) in test [2] (SC5314, unbuffered standard YNB medium). Moreover, the “susceptibility of mdr1Δ/Δ mutant versus MDR1+ control strains” value in test [1] (YNB medium at pH 5 or 7) is recorded as “not significantly different”. In addition, the “effect of 1 μM DHF, THF or 5MTHF supplement on MTX-mediated growth inhibition” value in test [2] (YNB medium) is on record as “had no effect”. Besides, the “drop of MIC50 with folic acid supplements” value in test [2] (versus standard YNB medium) was roughly 10 fold. Besides, the “growth inhibition (in words)” value is “insensitive at either pH” in the test on Candida glabrata; “modest and pH-dependent growth inhibition” with Candida parapsilosis; “modest and pH-dependent growth inhibition” with Candida tropicalis.
